Experimental data as given in patent publication US8822517B2, “Arylosulfonamides for the treatment of CNS diseases” (Adamed SP. Z O.O., priority 2010, dated 2014).

How the values were obtained:
[1] = target: T1, serotonine transporter (SERT) receptor (Homo sapiens, UniProt P31645); experiment: Binding assay SERT (h), [3H]imipramine, CHO cells; settings: read-out: SERT [%]
T1 construct: expressed in transfected cells; host or cells: CHO cells
Summary of the method: (§1)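 Compounds tested at a single 1×10^−6 M concentration against the listed radioligands; bound label counted by scintillation, with non-specific binding defined by excess unlabelled ligand and subtracted from total.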

[2] = target: T2, adrenergic α1A receptor (Homo sapiens, UniProt P35348); experiment: Cellular functional assay, adrenergic α1A receptor (agonism/antagonism); assay type: cell-based; settings: for activation at 1 µM: agonist effect, percent of control specific agonist response, compounds tested at 1×10^−6M, read-out: α1A -ag [%]; for inhibition at 1 µM: read-out: α1A -antag. [%]
T2 sequence (P35348 1-466): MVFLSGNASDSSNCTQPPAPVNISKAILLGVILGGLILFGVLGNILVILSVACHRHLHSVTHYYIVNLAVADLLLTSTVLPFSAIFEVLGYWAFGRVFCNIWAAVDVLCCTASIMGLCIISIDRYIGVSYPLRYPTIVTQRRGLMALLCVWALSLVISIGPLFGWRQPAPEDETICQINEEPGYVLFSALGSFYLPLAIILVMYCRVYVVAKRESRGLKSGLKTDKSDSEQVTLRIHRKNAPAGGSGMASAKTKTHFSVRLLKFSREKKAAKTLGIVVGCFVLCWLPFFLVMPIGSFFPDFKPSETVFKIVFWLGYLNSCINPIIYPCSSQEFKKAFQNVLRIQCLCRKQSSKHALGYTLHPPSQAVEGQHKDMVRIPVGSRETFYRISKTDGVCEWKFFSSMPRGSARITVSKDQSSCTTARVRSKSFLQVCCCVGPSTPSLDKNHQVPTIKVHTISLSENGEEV
Experimental: […]. The compounds were tested at the concentration of 1×10^−6M.
Conditions and methodology (by reference to the literature) of cellular functional assays are given in Table 13 and the tests results for representative compounds are given in Table 14 (dopaminergic receptor D2), in Table 15 (dopaminergic receptor D3), in Table 16 (serotoninergic receptor 5-HT1A), in Table 17 (serotoninergic receptor 5-HT2A), in Table 18 (serotoninergic receptor 5-HT6), in Table 19 (serotoninergic receptor 5-HT7), in Table 20 (adrenergic α1 receptor), in Table 21 (adrenergic α2C receptor), in Table 22 (histaminergic H1 receptor) and in Table 23 (serotoninergic 5-HT2C receptor). In the Tables ag refers to agonism, and antag to antagonism).

[3] = target: T3, dopaminergic D3 receptor (Homo sapiens, UniProt P35462); experiment: Cellular functional assay, dopaminergic D3 receptor (agonism/antagonism); assay type: cell-based; settings: for inhibition at 1 µM: CHO, read-out: D3-antag. [%]; for activation at 1 µM: agonist effect, percent of control specific agonist response (300 nM dopamine for control), 1×10^−6 M, D3 (h), CHO cells, read-out: D3-ag [%]
Experimental: (§2) The compounds were tested at the concentration of 1×10^−6M.
(§3) In the Tables ag refers to agonism, and antag to antagonism).

[4] = target: dopaminergic D2 receptor (Homo sapiens, UniProt P14416); experiment: Cellular functional assay, dopaminergic D2 receptor (agonism/antagonism); assay type: cell-based; settings: HEK293; for activation at 1 µM: agonist effect, percent of control specific agonist response (3 μM dopamine for control), 1×10^−6 M, D2S (h), HEK-293 cells, read-out: D2-ag [%]; for inhibition at 1 µM: read-out: D2-antag. [%]
Experimental: as §2, §3

[5] = target: T4, adrenergic α2C receptor (Homo sapiens, UniProt P18825); experiment: Cellular functional assay, adrenergic α2C receptor (agonism/antagonism); assay type: cell-based; settings: for activation at 1 µM: agonist effect, percent of control specific agonist response, compounds tested at 1×10^−6M, read-out: α2C −ag [%]; for inhibition at 1 µM: read-out: α2C −antag. [%]
T4 sequence (P18825 1-462): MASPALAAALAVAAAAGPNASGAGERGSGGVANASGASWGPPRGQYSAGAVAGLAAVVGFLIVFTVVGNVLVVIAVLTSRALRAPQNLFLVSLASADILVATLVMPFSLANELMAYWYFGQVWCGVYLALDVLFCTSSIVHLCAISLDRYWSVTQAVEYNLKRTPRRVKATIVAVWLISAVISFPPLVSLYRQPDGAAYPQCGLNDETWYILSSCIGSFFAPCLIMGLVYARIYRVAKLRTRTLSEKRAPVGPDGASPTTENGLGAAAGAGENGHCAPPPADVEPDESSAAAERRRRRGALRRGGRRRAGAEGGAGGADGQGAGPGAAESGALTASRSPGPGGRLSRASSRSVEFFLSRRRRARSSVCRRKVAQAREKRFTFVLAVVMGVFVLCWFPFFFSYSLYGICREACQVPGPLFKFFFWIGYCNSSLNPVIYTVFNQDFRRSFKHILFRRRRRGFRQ
Experimental: as §2, §3

[6] = target: T5, serotoninergic 5-HT1A receptor (Homo sapiens, UniProt P08908); experiment: Binding assay 5-HT1A (h), [3H]8-OH-DPAT, HEK-293 cells; set-up: expressed in transfected cells; host or cells: HEK-293 cells; settings: read-out: 5-HT1A
T5 sequence (P08908 1-422): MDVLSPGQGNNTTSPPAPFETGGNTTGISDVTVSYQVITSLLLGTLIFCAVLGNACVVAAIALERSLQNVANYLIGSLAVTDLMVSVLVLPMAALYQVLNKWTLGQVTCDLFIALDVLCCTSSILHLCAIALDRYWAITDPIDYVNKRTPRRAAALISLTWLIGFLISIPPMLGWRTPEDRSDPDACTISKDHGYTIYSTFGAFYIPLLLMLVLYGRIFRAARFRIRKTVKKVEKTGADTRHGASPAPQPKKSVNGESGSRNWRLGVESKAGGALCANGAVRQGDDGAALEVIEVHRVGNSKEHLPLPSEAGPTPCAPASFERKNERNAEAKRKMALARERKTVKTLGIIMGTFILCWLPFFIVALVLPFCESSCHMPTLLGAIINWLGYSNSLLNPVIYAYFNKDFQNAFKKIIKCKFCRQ
Summary of the method: as §1

[7] = target: T3, dopaminergic D3 receptor; experiment: Binding assay D3 (h), [3H]methyl-spiperone, CHO cells; set-up: expressed in transfected cells; host or cells: CHO cells; settings: read-out: D3 [%]
Summary of the method: as §1

[8] = target: T6, histaminergic H1 receptor (Homo sapiens, UniProt P35367); experiment: Binding assay H1 (h), [3H]pyrilamine, HEK-293 cells; set-up: expressed in transfected cells; host or cells: HEK-293 cells; settings: read-out: H1 [%]
Summary of the method: as §1

[9] = target: T6, histaminergic H1 receptor; experiment: Cellular functional assay, histaminergic H1 receptor (agonism/antagonism); assay type: cell-based
Experimental: as §2, §3

T6 sequence (P35367 whole entry): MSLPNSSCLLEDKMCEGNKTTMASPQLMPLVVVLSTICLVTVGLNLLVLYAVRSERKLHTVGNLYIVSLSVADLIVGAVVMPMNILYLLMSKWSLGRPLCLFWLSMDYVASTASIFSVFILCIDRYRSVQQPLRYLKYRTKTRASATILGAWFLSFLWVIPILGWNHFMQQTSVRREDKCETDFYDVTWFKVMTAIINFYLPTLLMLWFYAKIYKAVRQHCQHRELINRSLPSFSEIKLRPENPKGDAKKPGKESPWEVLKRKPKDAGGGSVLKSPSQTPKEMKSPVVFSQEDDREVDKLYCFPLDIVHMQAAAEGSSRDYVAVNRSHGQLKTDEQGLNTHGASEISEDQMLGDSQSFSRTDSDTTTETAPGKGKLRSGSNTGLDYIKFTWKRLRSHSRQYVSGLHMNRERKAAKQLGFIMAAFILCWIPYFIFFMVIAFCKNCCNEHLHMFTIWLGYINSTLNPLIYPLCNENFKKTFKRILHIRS
T1 sequence (P31645 whole entry): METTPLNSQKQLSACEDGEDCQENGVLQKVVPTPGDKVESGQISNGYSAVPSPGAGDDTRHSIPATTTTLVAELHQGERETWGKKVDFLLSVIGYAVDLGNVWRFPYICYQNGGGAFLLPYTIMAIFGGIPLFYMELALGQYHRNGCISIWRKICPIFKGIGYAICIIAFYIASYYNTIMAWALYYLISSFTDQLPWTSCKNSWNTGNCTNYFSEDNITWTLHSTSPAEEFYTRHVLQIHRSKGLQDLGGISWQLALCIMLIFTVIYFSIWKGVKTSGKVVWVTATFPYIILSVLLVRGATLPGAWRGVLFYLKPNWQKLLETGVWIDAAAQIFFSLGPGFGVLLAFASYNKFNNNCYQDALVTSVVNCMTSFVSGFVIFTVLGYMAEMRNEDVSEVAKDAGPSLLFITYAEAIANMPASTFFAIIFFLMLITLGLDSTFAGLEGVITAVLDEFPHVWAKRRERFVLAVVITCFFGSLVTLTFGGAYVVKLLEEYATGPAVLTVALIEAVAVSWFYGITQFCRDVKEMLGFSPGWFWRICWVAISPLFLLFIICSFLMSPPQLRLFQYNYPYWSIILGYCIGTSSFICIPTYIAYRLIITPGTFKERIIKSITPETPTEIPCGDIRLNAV
T3 sequence (P35462 whole entry): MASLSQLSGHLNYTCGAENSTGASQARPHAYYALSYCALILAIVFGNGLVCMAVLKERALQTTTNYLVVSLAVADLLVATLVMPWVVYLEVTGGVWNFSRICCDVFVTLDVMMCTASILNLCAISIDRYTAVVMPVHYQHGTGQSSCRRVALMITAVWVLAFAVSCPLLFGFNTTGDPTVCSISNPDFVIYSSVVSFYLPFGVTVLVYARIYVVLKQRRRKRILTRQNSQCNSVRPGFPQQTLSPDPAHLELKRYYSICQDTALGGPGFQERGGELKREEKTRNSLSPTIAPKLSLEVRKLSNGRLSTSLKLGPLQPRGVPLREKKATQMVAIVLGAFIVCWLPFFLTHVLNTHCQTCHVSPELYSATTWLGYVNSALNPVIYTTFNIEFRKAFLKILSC
Sequence of dopaminergic D2 receptor (P14416 whole entry): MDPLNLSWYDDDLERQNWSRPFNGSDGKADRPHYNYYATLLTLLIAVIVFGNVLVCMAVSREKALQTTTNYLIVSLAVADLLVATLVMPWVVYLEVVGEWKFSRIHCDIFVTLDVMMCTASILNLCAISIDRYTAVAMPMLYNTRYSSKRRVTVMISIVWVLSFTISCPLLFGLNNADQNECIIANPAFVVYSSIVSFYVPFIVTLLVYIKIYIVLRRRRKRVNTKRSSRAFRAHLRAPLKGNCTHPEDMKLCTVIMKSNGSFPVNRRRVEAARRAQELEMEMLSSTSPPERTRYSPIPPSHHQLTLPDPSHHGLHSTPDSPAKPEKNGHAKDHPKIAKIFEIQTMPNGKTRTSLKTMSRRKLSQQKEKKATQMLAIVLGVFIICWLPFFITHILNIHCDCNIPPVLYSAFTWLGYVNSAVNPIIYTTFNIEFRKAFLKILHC

SMILES	inhibition at 1 µM [1] [%]	activation at 1 µM [2] [%]	inhibition at 1 µM [2] [%]	inhibition at 1 µM [3] [%]	activation at 1 µM [3] [%]	activation at 1 µM [4] [%]	inhibition at 1 µM [4] [%]	activation at 1 µM [5] [%]	inhibition at 1 µM [5] [%]	inhibition at 1 µM [6] [%]	inhibition at 1 µM [7] [%]	inhibition at 1 µM [8] [%]	activation at 1 µM ([9]; agonist effect, percent of control specific agonist response, compounds tested at 1×10^−6M, read-out: H1 -ag [%]) [%]	inhibition at 1 µM ([9]; read-out: H1 -antag. [%]) [%]
Cc1cccc(S(=O)(=O)NCCCN2CCC(c3noc4cc(F)ccc34)CC2)c1 [Compound 22, N-[3-[4-(6-Fluoro-1,2-benzoxazol-3-yl)piperidin-1-yl]propyl]-3-methylbenzenesulphonamide]	44	0	100	81	-25	2	99	-8	12	75	96	88	–	–
O=S(=O)(NCCCCN1CCN(c2cccc3[nH]ccc23)CC1)c1ccc2ccccc2c1 [Compound 26, N-{4-[4-(1H-Indol-4-yl)piperazin-1-yl]butyl}naphthalene-2-sulphonamide]	14	0	100	-8	64	29	99	25	53	100	98	52	–	–
O=S(=O)(NCCCCN1CCN(c2cccc3[nH]ccc23)CC1)c1cnc2ccccn12 [Compound 30, N-{4-[4-(1H-Indol-4-yl)piperazin-1-yl]butyl}-imidazo[1,2-a]pyridine-3-sulphonamide]	14	0	97	35	52	43	97	18	35	100	98	40	–	–
O=S(=O)(NCCCCN1CCN(c2cccc3[nH]ccc23)CC1)c1cc2ccccc2s1 [Compound 33, N-{4-[4-(1H-Indol-4-yl)piperazin-1-yl]butyl}-1-benzothiophene-2-sulphonamide]	-4	0	100	-1	60	37	98	-1	6	100	101	56	–	–
Cc1c(S(=O)(=O)NCCCCN2CCN(c3nsc4ccccc34)CC2)sc2ccc(F)cc12 [Compound 65, N-[4-[4-(1,2-Benzothiazol-3-yl)piperazin-1-yl]butyl]-5-fluoro-3-methylbenzothiophene-2-sulphonamide]	57	0	98	–	–	10	74	8	20	100	74	95	0	60
O=S(=O)(NCCCCN1CCN(c2cccc3[nH]ccc23)CC1)c1cccc(Cl)c1 [Compound 113, N-[4-[4-(1H-Indol-4-yl)piperazin-1-yl]butyl]-3-chlorobenzenesulphonamide]	28	1	100	30	39	42	94	13	53	100	99	60	–	–
O=S(=O)(NCCCCN1CCC(c2noc3cc(F)ccc23)CC1)c1cc2ccccc2s1 [Compound 312, N-[4-[4-(6-Fluoro-1,2-benzoxazol-3-yl)piperidin-1-yl]butyl]benzothiophene-2-sulphonamide]	35	0	100	97	10	4	90	61	39	86	97	86	–	–
O=S(=O)(NCCCCN1CCN(c2cccc3[nH]ccc23)CC1)c1ccc(F)cc1 [Compound 359, 4-Fluoro-N-[4-[4-(1H-indol-4-yl)piperazin-1-yl]butyl]benzenesulphonamide]	33	1	100	79	25	39	96	13	38	100	100	60	–	–
O=S(=O)(NCCCCN1CCN(c2cccc3[nH]ccc23)CC1)c1cc2ccc(Cl)cc2s1 [Compound 363, 6-Chloro-N-[4-[4-(1H-indol-4-yl)piperazin-1-yl]butyl]benzothiophene-2-sulphonamide]	32	0	100	-3	65	50	94	17	42	101	101	70	–	–
